# From patent US10793526B2, “Hydantoin derivative compounds, methods of use and methods of treatment” (University of South Florida, priority 2016, dated 2020)
# Assays:
# [1] = test system: panel of Gram-positive and Gram-negative bacteria; experiment: Antimicrobial activity against the whole panel of bacteria; format: cell-based; details: all tested strains; read-out: MICs against all tested Gram-positive and Gram-negative strains
# Experimental: (§1) Minimum inhibitory concentrations (MICs) assay.^2
# (§2) All compounds were tested against six different bacteria strains: methicillin-resistant S. aureus (MRSA, ATCC 33591), E. coli (ATCC 25922), methicillin-resistant S. epidermidis (MRSE, RP62A), K. pneumoniae (ATCC 13383), vancomycin-resistant Enterococcus faecalis (VREF, ATCC 700802), P. aeruginosa (ATCC 27853). One colony of each bacteria was inoculated in 4 mL TSB buffer at 37° C. overnight, which was then diluted 100 times, and the bacteria were allowed to grow to the mid-logarithmic phase. 50 μL hydantoin compounds in 2-fold serial dilution of TSB were added in the 96-well plate, then 50 μL diluted bacterial in TSB medium (1×10^6 CFU/mL) was added to each well. After 16 h of incubation at 37° C., the absorption at 600 nm wavelength on a Biotek Synergy HT microtiter plate reader was recorded. Minimum inhibitory concentrations were determined as the lowest concentrations that inhibited bacteria growth completely.
# MRSA [2] = experiment: Fluorescence microscopy (DAPI/PI) membrane damage, MRSA; format: cell-based, Staphylococcus aureus; details: 5 μg/mL, 2 h
# E. coli = experiment: Fluorescence microscopy (DAPI/PI) membrane damage, E. coli; format: cell-based, Escherichia coli; details: 5 μg/mL, 2 h
# Experimental: Fluorescence microscopy.^2
# Both propidium iodide (PI) and 4′, 6′-diamidino-2-phenylindole dihydrochloride (DAPI) fluorescent dyes were used in the studies to determine the ability of the compound 22 to compromise the membranes of MRSA and E. coli, respectively. […] After centrifugation for 15 min at 5000 rpm, cell pellets were washed with 1×PBS buffer, and incubated with PI (5 μg/mL) for 15 min on ice in the dark, then washed 2 times with PBS. Then the cell pellets were incubated with DAPI (10 μg/mL) in the similar way. The pellets were then diluted in 100 μL PBS, and 10-20 μL of the suspension was applied on chamber slides and observed under Zeiss Axio Image Zloptical microscope using 100× oil-immersion objective.
# MRSA [3] = experiment: Time kill assay, MRSA; format: cell-based, Staphylococcus aureus
# Experimental: Bacteria MRSA (Gram-positive) and E. coli (Gram-negative) suspensions were allowed to grow at 37° C. to the mid-logarithmic phase, and diluted to 1×10^6 CFU/mL, then incubated with the compound 22 at the concentration of 50, 25, 12.5 μg/mL at 10 min, 30 min, 1 h and 2 h, respectively. The resulted mixture was then diluted by 10^2 to 10^4 fold, from which 100 μL was spread on the TSB agar plate. The Number of bacteria colonies was counted after 20 h of incubation at 37° C.
# [4] = test system: methicillin-resistant S. epidermidis (MRSE, RP62A); experiment: Minimum inhibitory concentration (MIC) assay, MRSE; format: cell-based, Staphylococcus epidermidis; details: Staphylococcus epidermidis, MRSE, Gram positive, 16 h incubation, read-out: MIC (μg/mL) MRSE
# Experimental: as §1, §2
# MRSA [5] = experiment: Drug resistance assay; format: cell-based, Staphylococcus aureus
# Experimental: The lead compound 22 was chosen for drug resistance studies. Briefly, after its MIC against MRSA was determined, the bacteria solution from the well of the ½ MIC was withdrawn and diluted to 1×10^6 CFU/mL for the next MIC measurement. The measurement was repeated for 14 passages.
structure (smiles),measurement,setting,value
"CCCCCCCCCCCC(=O)N[C@@H](CCCCN)CN1CC(=O)N(c2cccc(Cl)c2)C1=O [Compound 22, (S)—N-(6-amino-1-(3-(3-chlorophenyl)-2,4-dioxoimidazolidin-1-yl)hexan-2-yl)dodecanamide]",MIC,[1],< 1 µg/mL
same,membrane damage of MRSA (DAPI/PI staining),MRSA [2],membranes of both MRSA and E. coli were damaged
same,membrane damage of E. coli (DAPI/PI staining),E. coli,membranes of both MRSA and E. coli were damaged
same,time to completely eradicate MRSA,MRSA [3]; 2.0 μg/mL (4×MIC),60 min
same,time to completely eradicate MRSA,MRSA [3]; 25 μg/mL,10 min
same,MIC,[4],0.5 µg/mL
same,MIC against MRSA after 14 passages at half MIC,MRSA [5],virtually remain unchanged
